Experimental data published in publication PMC12756739 (ACS Omega, 2025).
Like-named read-outs stand apart in the source and are kept apart here.

Tests used:
EGFR^T790M = conditions: read-out: IC50 EGFR^T790M; ref Aboelez et al.; cited from earlier work
EGFR^WT [1] = conditions: read-out: IC50 EGFR^WT; ref Aboelez et al.; cited from earlier work
tubulin polymerization [2] = conditions: read-out: antitubulin polymerization IC50; ref Aboelez et al.; cited from earlier work
A549 cell line = test: MTT cytotoxicity test, A549 cell line; type: cell-based; conditions: Homo sapiens, A549, read-out: IC50 (μM) A549
MCF-7 cell line [3] = test: MTT cytotoxicity test, MCF-7 cell line; type: cell-based; conditions: Homo sapiens, MCF7, read-out: IC50 (μM) MCF-7
NIH3T3 cells = test: MTT cytotoxicity test, NIH3T3 cell line; type: cell-based; conditions: Mus musculus, NIH3T3, read-out: IC50 (μM) NIH3T3
COX-2 enzyme = biological target: T1, COX-2 enzyme (Homo sapiens, UniProt P35354); test: biochemical
T1 sequence (P35354 18-604): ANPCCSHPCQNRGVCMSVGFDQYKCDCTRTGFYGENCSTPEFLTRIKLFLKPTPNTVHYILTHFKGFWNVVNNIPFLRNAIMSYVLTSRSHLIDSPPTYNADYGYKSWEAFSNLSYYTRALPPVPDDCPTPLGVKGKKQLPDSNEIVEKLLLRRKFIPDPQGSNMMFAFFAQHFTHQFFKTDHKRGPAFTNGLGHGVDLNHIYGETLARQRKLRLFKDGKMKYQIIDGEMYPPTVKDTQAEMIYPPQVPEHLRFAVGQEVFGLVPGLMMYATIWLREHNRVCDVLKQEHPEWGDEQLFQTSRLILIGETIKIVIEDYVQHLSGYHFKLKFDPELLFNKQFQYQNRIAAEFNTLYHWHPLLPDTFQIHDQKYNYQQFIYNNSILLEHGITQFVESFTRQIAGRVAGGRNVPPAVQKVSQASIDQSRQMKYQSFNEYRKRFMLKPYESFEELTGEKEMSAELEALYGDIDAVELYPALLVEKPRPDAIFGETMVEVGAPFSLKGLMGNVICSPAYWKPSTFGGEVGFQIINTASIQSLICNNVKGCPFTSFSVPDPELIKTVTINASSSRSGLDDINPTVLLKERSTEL

EGFR enzyme = EGFR enzyme (Homo sapiens, UniProt P00533); test: EGFR kinase inhibition assay; type: biochemical
MCF-7 cell line [4] = test: Flow cytometric apoptosis/necrosis analysis; type: cell-based; conditions: at the IC50 concentration
[5] = tested on: carbonic anhydrase IX (CA IX); conditions: ref Fadaly et al.; cited from earlier work
[6] = tested on: carbonic anhydrase XII (CA XII); conditions: ref Fadaly et al.; cited from earlier work
HDAC1 = conditions: read-out: IC50 HDAC1; ref Mohamed et al.; cited from earlier work
HDAC2 = conditions: read-out: IC50 HDAC2; ref Mohamed et al.; cited from earlier work
CA IX = conditions: read-out: inhibition constant CA IX; ref Mohamed et al.; cited from earlier work
CA XII = conditions: read-out: inhibition constant CA XII; ref Mohamed et al.; cited from earlier work
tubulin polymerization [7] = conditions: read-out: IC50 antitubulin polymerization assay; ref Mohamed et al.; cited from earlier work
COX-2 = conditions: ref Fadaly et al.; cited from earlier work
EGFR^WT [8] = conditions: ref Fadaly et al.; cited from earlier work
EGFR^L858R/T790M = conditions: ref Fadaly et al.; cited from earlier work
CDK2 = conditions: ref Abdalla et al.; cited from earlier work
CDK6 = conditions: ref Abdalla et al.; cited from earlier work
CDK12 = conditions: ref Abdalla et al.; cited from earlier work
topoisomerase II = conditions: ref Ewieda et al.; cited from earlier work
VEGFR-2 = conditions: read-out: IC50 VEGFR-2; ref Abd El-Mawgoud et al.; cited from earlier work
AKT-1 = conditions: read-out: IC50 AKT-1; ref Abd El-Mawgoud et al.; cited from earlier work

Chain of EGFR enzyme (P00533 25-1210): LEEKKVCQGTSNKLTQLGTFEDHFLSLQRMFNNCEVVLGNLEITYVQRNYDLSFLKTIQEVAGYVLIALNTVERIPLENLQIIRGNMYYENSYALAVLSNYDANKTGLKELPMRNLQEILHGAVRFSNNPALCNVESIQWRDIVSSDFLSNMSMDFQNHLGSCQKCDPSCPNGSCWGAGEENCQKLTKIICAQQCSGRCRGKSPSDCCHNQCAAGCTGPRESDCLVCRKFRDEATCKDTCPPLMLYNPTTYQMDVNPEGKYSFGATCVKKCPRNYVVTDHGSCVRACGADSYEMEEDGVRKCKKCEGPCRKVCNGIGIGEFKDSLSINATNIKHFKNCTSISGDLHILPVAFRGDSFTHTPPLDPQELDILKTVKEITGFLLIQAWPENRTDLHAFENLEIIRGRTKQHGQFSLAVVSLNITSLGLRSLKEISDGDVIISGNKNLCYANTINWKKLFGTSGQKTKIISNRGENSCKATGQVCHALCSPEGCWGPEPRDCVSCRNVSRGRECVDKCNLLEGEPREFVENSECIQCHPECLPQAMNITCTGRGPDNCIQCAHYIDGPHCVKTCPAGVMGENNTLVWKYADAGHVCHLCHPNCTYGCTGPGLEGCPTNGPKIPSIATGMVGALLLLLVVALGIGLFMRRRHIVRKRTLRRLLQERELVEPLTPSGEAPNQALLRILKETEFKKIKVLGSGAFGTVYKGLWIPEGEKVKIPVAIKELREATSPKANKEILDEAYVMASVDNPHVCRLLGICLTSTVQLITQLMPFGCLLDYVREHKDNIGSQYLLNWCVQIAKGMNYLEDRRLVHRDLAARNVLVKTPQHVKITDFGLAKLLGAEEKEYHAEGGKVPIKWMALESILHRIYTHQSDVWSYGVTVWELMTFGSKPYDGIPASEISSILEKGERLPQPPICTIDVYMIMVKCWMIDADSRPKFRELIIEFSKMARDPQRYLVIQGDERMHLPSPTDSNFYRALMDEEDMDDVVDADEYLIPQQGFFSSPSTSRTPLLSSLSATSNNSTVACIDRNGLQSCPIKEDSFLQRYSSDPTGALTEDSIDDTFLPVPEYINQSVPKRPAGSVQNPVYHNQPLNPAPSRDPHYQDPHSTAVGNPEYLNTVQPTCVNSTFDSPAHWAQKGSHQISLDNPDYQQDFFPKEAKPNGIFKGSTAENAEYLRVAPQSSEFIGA

| SMILES | IC50 (A549 cell line) [µM] | IC50 (MCF-7 cell line [3]) [µM] | IC50 (NIH3T3 cells) [µM] | IC50 (COX-2 enzyme) [µM] | also measured |
| --- | --- | --- | --- | --- | --- |
| CC(=NNC(=O)c1sc2sc(C(=O)NN=C(C)c3ccccc3)c(N)c2c1N)c1ccccc1 [3,4-diamino-N′2,N′5-bis(1-phenylethylidene)thieno[2,3-b]thiophene-2,5-dicarbohydrazide] |  |  |  |  | IC50 (EGFR^T790M): 0.0246 µM; IC50 (EGFR^WT [1]): 0.0281 µM; IC50 (tubulin polymerization [2]): 5.1 µM |
| O=C(CSc1nnc(NC(=O)c2ccc(Cl)c(Cl)c2)s1)Nc1ccccc1 [3a, 3,4-Dichloro-N-(5-((2-oxo-2-(phenylamino)ethyl)thio)-1,3,4-thiadiazol-2-yl)benzamide] | > 100 | > 100 | > 100 | 2.39 ± 0.104 |  |
| O=C(CSc1nnc(NC(=O)c2ccc(Cl)c(Cl)c2)s1)Nc1ccc(C(F)(F)F)cc1 [3b, 3,4-Dichloro-N-(5-((2-oxo-2-((4-(trifluoromethyl)phenyl)amino)ethyl)thio)-1,3,4-thiadiazol-2-yl)benzamide] | 46.5 ± 1.45 | > 100 | 67.1 ± 2.37 | > 1000 |  |
| O=C(CSc1nnc(NC(=O)c2ccc(Cl)c(Cl)c2)s1)Nc1ccc(Cl)cc1 [3d, 3,4-Dichloro-N-(5-((2-((4-chlorophenyl)amino)-2-oxoethyl)thio)-1,3,4-thiadiazol-2-yl)benzamide] | > 100 | > 100 | > 100 | 6.72 ± 0.312 |  |
| NS(=O)(=O)c1ccc(NC(=O)CSc2nnc(NC(=O)c3ccc(Cl)c(Cl)c3)s2)cc1 [3e, 3,4-Dichloro-N-(5-((2-oxo-2-((4-sulfamoylphenyl)amino)ethyl)thio)-1,3,4-thiadiazol-2-yl)benzamide] | > 100 | 11 ± 0.402 | 70.8 ± 2.5 | 0.32 ± 0.014 |  |
| O=C(CSc1nnc(NC(=O)c2ccc(Cl)cc2)s1)Nc1ccccc1 [3f, 4-Chloro-N-(5-((2-oxo-2-(phenylamino)ethyl)thio)-1,3,4-thiadiazol-2-yl)benzamide] | > 100 | > 100 | > 100 | 0.874 ± 0.039 |  |
| O=C(CSc1nnc(NC(=O)c2ccc(Cl)cc2)s1)Nc1ccc(C(F)(F)F)cc1 [3g, 4-Chloro-N-(5-((2-oxo-2-((4-(trifluoromethyl)phenyl)amino)ethyl)thio)-1,3,4-thiadiazol-2-yl)benzamide] | 21.1 ± 0.996 | 27.1 ± 1.26 | > 100 | > 100 |  |
| O=C(CSc1nnc(NC(=O)c2ccc(Cl)cc2)s1)Nc1ccc(Cl)cc1 [3i, 4-Chloro-N-(5-((2-((4-chlorophenyl)amino)-2-oxoethyl)thio)-1,3,4-thiadiazol-2-yl)benzamide] | > 100 | 12.1 ± 0.589 | 24.9 ± 1.18 | 3.78 ± 0.177 |  |
| NS(=O)(=O)c1ccc(NC(=O)CSc2nnc(NC(=O)c3ccc(Cl)cc3)s2)cc1 [3j, 4-Chloro-N-(5-((2-oxo-2-((4-sulfamoylphenyl)amino)ethyl)thio)-1,3,4-thiadiazol-2-yl)benzamide] | 20.7 ± 0.984 | 2.38 ± 0.108 | 85.6 ± 3.16 | 0.192 ± 0.008 | IC50 (EGFR enzyme): 0.02 ± 0.0008 µM; % early apoptosis (MCF-7 cell line [4]; lower right quadrant): 20.20%; % necrosis (MCF-7 cell line [4]; upper left quadrant): 4.08%; % late apoptosis (MCF-7 cell line [4]; upper right quadrant): 15.56% |
| O=C(CSc1nnc(NC(=O)c2ccc(F)cc2)s1)Nc1ccccc1 [3k, 4-Fluoro-N-(5-((2-oxo-2-(phenylamino)ethyl)thio)-1,3,4-thiadiazol-2-yl)benzamide] | 69.1 ± 2.8 | > 100 | > 100 | > 1000 |  |
| O=C(CSc1nnc(NC(=O)c2ccc(F)cc2)s1)Nc1ccc(C(F)(F)F)cc1 [3l, 4-Fluoro-N-(5-((2-oxo-2-((4-(trifluoromethyl)phenyl)amino)ethyl)thio)-1,3,4-thiadiazol-2-yl)benzamide] | 41.1 ± 1.96 | 30.5 ± 1.37 | 46.2 ± 1.82 |  | IC50 (COX-2 enzyme; read-out: COX-2 IC50, fluorometric kit, 25 °C): 0.974 ± 0.045 µM |
| O=C(CSc1nnc(NC(=O)c2ccc(F)cc2)s1)Nc1ccc(Cl)cc1 [3n, 4-Fluoro-N-(5-((2-((4-chlorophenyl)amino)-2-oxoethyl)thio)-1,3,4-thiadiazol-2-yl)benzamide] | > 100 | > 100 | > 100 | 0.721 ± 0.03 |  |
| COc1ccc(C(=O)Nc2nnc(SCC(=O)Nc3ccccc3)s2)cc1 [3p, 4-Methoxy-N-(5-((2-oxo-2-(phenylamino)ethyl)thio)-1,3,4-thiadiazol-2-yl)benzamide] | > 100 | > 100 | > 100 | > 1000 |  |
| COc1ccc(C(=O)Nc2nnc(SCC(=O)Nc3ccc(C(F)(F)F)cc3)s2)cc1 [3r, 4-Methoxy-N-(5-((2-oxo-2-((4-(trifluoromethyl)phenyl)amino)ethyl)thio)-1,3,4-thiadiazol-2-yl)benzamide] | > 100 | 43.1 ± 2.06 | 47.6 ± 1.77 | > 100 |  |
| COc1ccc(C(=O)Nc2nnc(SCC(=O)Nc3ccc(Cl)cc3)s2)cc1 [3t, 4-Methoxy-N-(5-((2-oxo-2-((4-chlorophenyl)amino)ethyl)thio)-1,3,4-thiadiazol-2-yl)benzamide] | > 100 | > 100 | > 100 | > 100 |  |
| COc1ccc(-c2csc(N3N=C(c4nnn(-c5ccc(S(N)(=O)=O)cc5)c4C)CC3c3ccc(OC)cc3)n2)cc1 (centres unmarked) [4-(4-(5-(4-methoxyphenyl)-1-(4-(4-methoxyphenyl)thiazol-2-yl)-4,5-dihydro-1H-pyrazol-3-yl)-5-methyl-1H-1,2,3-triazol-1-yl)benzenesulfonamide] |  |  |  |  | activity against CA IX [5]: 0.025 µM; activity against CA XII [6]: 0.031 µM |
| NS(=O)(=O)c1ccc(NC(=O)COc2ccc(/C=C/C(=O)c3ccc(Br)cc3)cc2)cc1 [(E)-2-(4-(3-(4-bromophenyl)-3-oxoprop-1-en-1-yl)phenoxy)-N-(4-sulfamoylphenyl)acetamide] |  |  |  |  | IC50 (HDAC1): 0.134 µM; IC50 (HDAC2): 0.0663 µM; Ki (CA IX): 0.072 ± 0.00258 µM; Ki (CA XII): 0.0508 ± 0.00258 µM; IC50 (tubulin polymerization [7]): 2.56 µM |
| CS(=O)(=O)c1ccc(-n2cc(/C=N/c3ccc(NC(=O)CO[N+](=O)[O-])cc3)c(-c3ccc(Br)cc3)n2)cc1 [(E)-2-((4-(((3-(4-bromophenyl)-1-(4-(methylsulfonyl)phenyl)-1H-pyrazol-4-yl)methylene)amino)phenyl)amino)-2-oxoethyl nitrate] |  |  |  |  | activity against COX-2 (COX-2): 0.437 µM; activity against EGFR^WT (EGFR^WT [8]): 0.452 µM; activity against EGFR^L858R/T790M (EGFR^L858R/T790M): 0.031 µM |
| Nc1ccccc1C(=O)O [Anthranilic acid] |  |  |  |  | activity against CDK2 (CDK2): 0.67 µM; activity against CDK6 (CDK6): 0.48 µM; activity against CDK12 (CDK12): 0.82 µM |
| Br.CCOC(=O)C1=C(c2ccccc2)N=C2SC=C(c3ccc(C)cc3)N2C1c1ccc(Br)cc1 (centres unmarked) [Ethyl 5-(4-bromophenyl)-3-(4-methylphenyl)-7-phenyl-5H-thiazolo[3,2-a]pyrimidine-6-carboxylate hydrobromide] |  |  |  |  | activity against topoisomerase (topoisomerase II): 0.94 µM |
| Nc1nc2c3c(N)c(-c4nnc(NC(=O)c5ccccc5)s4)sc3ncn2n1 [N-(5-(2,9-diaminothieno[3,2-e]1,3,4-triazolo[1,5-c]pyrimidin-8-yl)-1,3,4-thiadiazol-2-yl)benzamide] |  |  |  |  | IC50 (VEGFR-2): 0.164 µM; IC50 (AKT-1): 0.452 µM |
| COc1cccc2c1C(=O)c1c(O)c3c(c(O)c1C2=O)C[C@@](O)(C(=O)CO)C[C@@H]3O[C@H]1C[C@H](N)[C@H](O)[C@H](C)O1 [doxorubicin, reference compound] |  |  | > 100 |  |  |
